Reference: patent US12590071B2, “Hydrazone derivative in which terminal amine group is substituted with aryl group or heteroaryl group, and use thereof” (KOREA INSTITUTE OF SCIENCE AND TECHNOLOGY, priority 2018, dated 2026)

Key:
[1] = test system: Tau-BiFC cells; assay: Cytotoxicity (cell survival rate) in tau-BiFC cells; details: group treated with Forskolin alone = 100%
Description: (§1) In order to select new tau protein aggregation-inhibiting materials, tau-BiFC cell models, in which it is easy to observe the formation of tau oligomers in living cells, were used. […] After 48 hours, intracellular nuclei were stained using Hoechst (treatment concentration 2 μg/mL), and BiFC fluorescence intensity was automatically quantified using Operetta (PerkinElmer) to count stained nuclei in each well from the total well plates. […] Further, the degree of cytotoxicity induced by the newly synthesized compound is also based on the 100% survival rate of the group treated with Forskolin alone, and the cytotoxicity value of the compound was calculated by the equation “number of stained nuclei in the group treated with the compound/number of stained nuclei in the group treated with Forskolin x 100”.
(§2) In order to evaluate dose-dependent tau protein aggregation inhibition effects of the compounds selected according to Experimental Example 1, the selected compounds were treated in tau-BiFC cells at concentrations of 0.03 µM, […], 0.3 μM, 1 μM, 3 μM, 10 μM, and 30 μM, respectively, together with Forskolin (treatment concentration 30 µM) as a tau protein aggregation inducing material. After 48 hours, tau protein aggregation reaction and cytotoxicity degree were analyzed by observing cell images. The IC50 and toxicity of the compounds were analyzed by nonlinear regression analysis of prism software (Graph Pad).

[2] = target: T1, tau protein (Homo sapiens, UniProt P10636); assay: Tau protein aggregation inhibition in tau-BiFC cell model; format: cell-based; details: tau-BiFC cells treated together with Forskolin, 48 hours
T1 construct: expressed in transfected cells
Description: as §1, §2

[3] = Pharmacokinetics in SD rat (plasma PK parameters); format: in vivo
Description: Specifically, an SD rat of 7 to 8 weeks of age (Core Tech, Hana Trading Co., Ltd.) having a body weight of about 250 g to 300 g was purchased, and was managed in a simple breeding room for small animals set to a temperature of 22° C.±2° C., a relative humidity of 50%±5%, a lighting time of 12 hours (light up at 8:00 A.M., turn off at 8:00 P.M.), and an illuminance of 150 lux to 300 lux. During the entire test period, feed was freely provided, RO water was freely provided, and fasting was performed for 16 hours before the oral administration of a drug. After preparing a drug under the conditions shown in Table 5 below, the drug was intravenously injected (IV) or orally administered (PO). 500 µL of transfused blood was collected in a tube containing sodium heparin and centrifuged at 2° C. to 8° C. at 8,000 rpm for 6 minutes to obtain plasma from the blood. The obtained plasma was added to 180 μL of acetonitrile containing internal standard materials, vortexed, and then centrifuged at 15,000 rpm at 4° C. for 5 minutes to obtain a supernatant. The obtained supernatant was analyzed by LC-MS/MS.
Specific PK parameters were acquired using the Phoenix WinNonlin version 6.4 program (Phersight, USA) and wore calculated with a non-compartmental analysis model.

T1 sequence (P10636 2-441 isoform P10636-8 limits assumed): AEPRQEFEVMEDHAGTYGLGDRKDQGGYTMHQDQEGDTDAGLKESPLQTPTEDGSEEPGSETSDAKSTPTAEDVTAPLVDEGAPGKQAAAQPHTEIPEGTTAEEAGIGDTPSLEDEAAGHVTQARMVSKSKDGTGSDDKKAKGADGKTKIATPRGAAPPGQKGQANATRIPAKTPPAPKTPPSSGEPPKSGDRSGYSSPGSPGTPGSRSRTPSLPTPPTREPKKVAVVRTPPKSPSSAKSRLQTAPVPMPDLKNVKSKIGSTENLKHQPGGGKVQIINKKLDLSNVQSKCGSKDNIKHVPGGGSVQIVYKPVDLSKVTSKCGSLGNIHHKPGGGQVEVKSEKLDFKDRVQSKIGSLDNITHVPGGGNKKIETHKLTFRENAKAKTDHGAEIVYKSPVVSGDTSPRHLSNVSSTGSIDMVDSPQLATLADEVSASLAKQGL

Cn1ncc2cc(NN=C(C#N)C#N)ccc21 [Compound 66, (1-methyl-1H-indazol-5-yl)carbonohydrazonoyl dicyanide]
Cell survival rate (% @ 10 μM) [1]: 96.8% | IC50 [2]: 12 nM

N#CC(C#N)=NNc1ccc(-c2ncccn2)c(F)c1 [Compound 39, (3-fluoro-4-(pyrimidin-2-yl)phenyl)carbonohydrazonoyl dicyanide]
Cell survival rate (% @ 10 μM) [1]: 89.8% | IC50 [2]: 1510 nM

Cn1cc2cc(-c3ccc(NN=C(C#N)C#N)cc3)ccc2n1 [Compound 56, (4-(2-methyl-2H-indazol-5-yl)phenyl)carbonohydrazonoyl dicyanide]
AUCall ([3]; SD rat plasma, IV 2 mg/kg): 17481.28 hr, ng/mL | Cmax ([3]; SD rat plasma, IV 2 mg/kg): 9140 ng/mL | Tmax ([3]; SD rat plasma, IV 2 mg/kg): 0.12 h | clearance ([3]; SD rat plasma, IV 2 mg/kg): 1.85 mL/min/kg | half-life ([3]; SD rat plasma, IV 2 mg/kg): 1.57 h | AUCall ([3]; SD rat plasma, PO 10 mg/kg): 77995.11 hr, ng/mL | Cmax ([3]; SD rat plasma, PO 10 mg/kg): 11400 ng/mL | Tmax ([3]; SD rat plasma, PO 10 mg/kg): 1.5 h | half-life ([3]; SD rat plasma, PO 10 mg/kg): 3.21 h | F ([3]; SD rat, PO 10 mg/kg versus IV): 89.2%

N#CC(C#N)=NNc1ccc(-c2cncs2)cc1 [Compound 20, (4-(thiazol-5-yl)phenyl)carbonohydrazonoyl dicyanide]
Cell survival rate (% @ 10 μM) [1]: 90% | IC50 [2]: 600 nM

COc1cc(-c2ncc(C)cn2)ccc1NN=C(C#N)C#N [Compound 41, (2-methoxy-4-(5-methylpyrimidin-2-yl)phenyl)carbonohydrazonoyl dicyanide]
Cell survival rate (% @ 10 μM) [1]: 126.8% | IC50 [2]: 7000 nM

Cc1n[nH]c2cc(NN=C(C#N)C#N)ccc12 [Compound 73, (3-methyl-1H-indazol-6-yl)carbonohydrazonoyl dicyanide]
Cell survival rate (% @ 10 μM) [1]: 138.5% | IC50 [2]: 1100 nM

Cc1ncc(C(=O)Nc2nc3ccc(NN=C(C#N)C#N)cc3s2)cn1 [Compound 95, (2-(2-methylpyrimidine-5-carboxamido)benzo[d]thiazol-6-yl)carbonohydrazonoyl dicyanide]
Cell survival rate (% @ 10 μM) [1]: 100.8% | IC50 [2]: 800 nM

N#CC(C#N)=NNc1ccc(-c2cnc3nccn3c2)cc1 [Compound 51, (4-(imidazo[1,2-a]pyrimidin-6-yl)phenyl)carbonohydrazonoyl dicyanide]
Cell survival rate (% @ 10 μM) [1]: 84.2% | IC50 [2]: 7420 nM

N#CC(C#N)=NNc1ccc(-c2ccccn2)cc1 [Compound 10, (4-(pyridin-2-yl)phenyl)carbonohydrazonoyl dicyanide]
Cell survival rate (% @ 10 μM) [1]: 110.1% | IC50 [2]: 520 nM

N#CC(C#N)=NNc1ccc(-c2cnc3ccccc3n2)cc1 [Compound 52, (4-(quinoxalin-2-yl)phenyl)carbonohydrazonoyl dicyanide]
Cell survival rate (% @ 10 μM) [1]: 139.6% | IC50 [2]: 1400 nM

N#CC(C#N)=NNc1ccc(-c2ccc3[nH]ccc3c2)cc1 [Compound 58, (4-(1H-indol-5-yl)phenyl)carbonohydrazonoyl dicyanide]
Cell survival rate (% @ 10 μM) [1]: 113.8% | IC50 [2]: 1200 nM

N#CC(C#N)=NNc1ccc(-c2ncccn2)cc1F [Compound 38, (2-fluoro-4-(pyrimidin-2-yl)phenyl)carbonohydrazonoyl dicyanide]
Cell survival rate (% @ 10 μM) [1]: 88.9% | IC50 [2]: 940 nM

Cn1ccc2cc(NN=C(C#N)C#N)cnc21 [Compound 76, (1-methyl-1H-pyrrolo[2,3-b]pyridin-5-yl)carbonohydrazonoyl dicyanide]
Cell survival rate (% @ 10 μM) [1]: 195.8% | IC50 [2]: 40 nM

N#CC(C#N)=NNc1ccc(-c2ccc3nccn3c2)cc1 [Compound 53, (4-(imidazo[1,2-a]pyridin-6-yl)phenyl)carbonohydrazonoyl dicyanide]
Cell survival rate (% @ 10 μM) [1]: 158.2% | IC50 [2]: 1300 nM

(2-(pyrazine-2-carboxamido)benzo[d]thiazol-5-yl)carbonohydrazonoyl dicyanide [Compound 99]
Cell survival rate (% @ 10 μM) [1]: 113.1% | IC50 [2]: 100 nM

Cn1cc2ccc(NN=C(C#N)C#N)cc2n1 [Compound 65, (2-methyl-2H-indazol-6-yl)carbonohydrazonoyl dicyanide]
Cell survival rate (% @ 10 μM) [1]: 103.3% | IC50 [2]: 72 nM

C#Cc1cnc(-c2ccc(NN=C(C#N)C#N)cc2)nc1 [Compound 149, (4-(5-ethynylpyrimidin-2-yl)phenyl)carbohydrazonoyl dicyanide]
Cell survival rate (% @ 10 μM) [1]: 113.9% | IC50 [2]: 100 nM

CCc1ccnc(-c2ccc(NN=C(C#N)C#N)cc2)n1 [Compound 6, (4-(4-ethylpyrimidin-2-yl)phenyl)carbonohydrazonoyl dicyanide]
Cell survival rate (% @ 10 μM) [1]: 147.1% | IC50 [2]: 900 nM

Cc1nc(-c2ccc(NN=C(C#N)C#N)cc2)ncc1F [Compound 3, (4-(5-fluoro-4-methylpyrimidin-2-yl)phenyl)carbonohydrazonoyl dicyanide]
Cell survival rate (% @ 10 μM) [1]: 66% | IC50 [2]: 2400 nM

COc1cc(-c2ncccn2)ccc1NN=C(C#N)C#N [Compound 43, (2-methoxy-4-(pyrimidin-2-yl)phenyl)carbonohydrazonoyl dicyanide]
Cell survival rate (% @ 10 μM) [1]: 112.3% | IC50 [2]: 1840 nM

N#CC(C#N)=NNc1ccc2nc(NC(=O)c3cncnc3)sc2c1 [Compound 94, (2-(pyrimidine-5-carboxamido)benzo[d]thiazol-6-yl)carbonohydrazonoyl dicyanide]
Cell survival rate (% @ 10 μM) [1]: 95.3% | IC50 [2]: 2700 nM

Cc1c[nH]c2ncc(NN=C(C#N)C#N)cc12 [Compound 82, (3-methyl-1H-pyrrolo[2,3-b]pyridin-5-yl)carbonohydrazonoyl dicyanide]
Cell survival rate (% @ 10 μM) [1]: 120.2% | IC50 [2]: 430 nM

Cc1ccnc(-c2ccc(NN=C(C#N)C#N)cc2F)n1 [Compound 40, (3-fluoro-4-(4-methylpyrimidin-2-yl)phenyl)carbonohydrazonoyl dicyanide]
Cell survival rate (% @ 10 μM) [1]: 101.3% | IC50 [2]: 2500 nM

N#CC(C#N)=NNc1ccc2[nH]ccc2c1 [Compound 71, (1H-indol-5-yl)carbonohydrazonoyl dicyanide]
Cell survival rate (% @ 10 μM) [1]: 116.4% | IC50 [2]: 860 nM

N#CC(C#N)=NNc1cnc2ccccc2c1 [Compound 64, quinolin-3-ylcarbonohydrazonoyl dicyanide]
Cell survival rate (% @ 10 μM) [1]: 112.5% | IC50 [2]: 190 nM

COc1cccc2sc(NN=C(C#N)C#N)nc12 [Compound 59, (4-methoxybenzo[d]thiazol-2-yl)carbonohydrazonoyl dicyanide]
Cell survival rate (% @ 10 μM) [1]: 120.3% | IC50 [2]: 500 nM

Cc1ncncc1C(=O)Nc1nc2ccc(NN=C(C#N)C#N)cc2s1 [Compound 96, (2-(4-methylpyrimidine-5-carboxamido)benzo[d]thiazol-6-yl)carbonohydrazonoyl dicyanide]
Cell survival rate (% @ 10 μM) [1]: 106.1% | IC50 [2]: 400 nM

Cn1ccc2cc(NN=C(C#N)C#N)ccc21 [Compound 68, (1-methyl-1H-indol-5-yl)carbonohydrazonoyl dicyanide]
Cell survival rate (% @ 10 μM) [1]: 177.2% | IC50 [2]: 60 nM
